Laboratory results from the supplement of paper PMC10307832.

How the values were obtained:
Experiment in all cases: relative viability (nuclei count vs DMSO), 5 days (fraction); higher = more cells survive
BGJ398 + Linsitinib = compound: CCN1CCN(c2ccc(Nc3cc(N(C)C(=O)Nc4c(Cl)c(OC)cc(OC)c4Cl)ncn3)cc2)CC1 [BGJ398] + C[C@]1(O)C[C@@H](c2nc(-c3ccc4ccc(-c5ccccc5)nc4c3)c3c(N)nccn32)C1 [Linsitinib] (partner 1 µM)
Summary of the method: (§1)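 The day after seeding in 1536-well plates, lung cancer cell lines were treated by pin tool with a single drug, or with a fixed anchor-drug dose together with five library-drug doses (not always all listed) in √10 steps. After 5 days, a combined fix-and-stain solution (final 0.05% Triton X-100, 1% formaldehyde, 1 ug/ml Hoechst) was added. Nuclei counted on 4× images gave relative viability as treated counts over vehicle counts, reported as the median of duplicate plates.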

[1] = compound: C1=CC2=NC=CN=C2C=C1/C=C/3\C(=O)NC(=O)S3 + Cc1cc(Nc2cc(N3CCN(C)CC3)nc(Sc3ccc(NC(=O)C4CC4)cc3)n2)n[nH]1 [Tozasertib] (partner 0.1 µM)
Summary of the method: as §1

BGJ398 + Bortezomib = compound: CCN1CCN(c2ccc(Nc3cc(N(C)C(=O)Nc4c(Cl)c(OC)cc(OC)c4Cl)ncn3)cc2)CC1 [BGJ398] + CC(C)C[C@H](NC(=O)[C@H](Cc1ccccc1)NC(=O)c1cnccn1)B(O)O [Bortezomib] (partner 0.002 µM)
Summary of the method: as §1

BGJ398 + Foretinib = compound: CCN1CCN(c2ccc(Nc3cc(N(C)C(=O)Nc4c(Cl)c(OC)cc(OC)c4Cl)ncn3)cc2)CC1 [BGJ398] + COc1cc2c(Oc3ccc(NC(=O)C4(C(=O)Nc5ccc(F)cc5)CC4)cc3F)ccnc2cc1OCCCN1CCOCC1 [Foretinib] (partner 0.25 µM)
Summary of the method: as §1

## HCC-44
BGJ398 + Linsitinib; first compound 0.01 µM
  relative viability: 0.63
BGJ398 + Linsitinib; first compound 0.03162 µM
  relative viability: 0.616
BGJ398 + Linsitinib; first compound 0.1 µM
  relative viability: 0.7
BGJ398 + Linsitinib; first compound 0.3162 µM
  relative viability: 0.76
BGJ398 + Linsitinib; first compound 1 µM
  relative viability: 0.629
[1]; first compound 0.02 µM
  relative viability: 0.896
[1]; first compound 0.06325 µM
  relative viability: 0.875
[1]; first compound 0.2 µM
  relative viability: 0.947
[1]; first compound 0.6325 µM
  relative viability: 0.874
[1]; first compound 2 µM
  relative viability: 0.605
BGJ398 + Bortezomib; first compound 0.01 µM
  relative viability: 0.938
BGJ398 + Bortezomib; first compound 0.03162 µM
  relative viability: 0.84
BGJ398 + Bortezomib; first compound 0.1 µM
  relative viability: 0.869
BGJ398 + Bortezomib; first compound 0.3162 µM
  relative viability: 0.828
BGJ398 + Bortezomib; first compound 1 µM
  relative viability: 0.713

## HCC-78
BGJ398 + Foretinib; first compound 0.01 µM
  relative viability: 0.563
BGJ398 + Foretinib; first compound 0.03162 µM
  relative viability: 0.597
BGJ398 + Foretinib; first compound 0.1 µM
  relative viability: 0.504
BGJ398 + Foretinib; first compound 0.3162 µM
  relative viability: 0.614
BGJ398 + Foretinib; first compound 1 µM
  relative viability: 0.549
BGJ398 + Linsitinib; first compound 0.01 µM
  relative viability: 0.378
BGJ398 + Linsitinib; first compound 0.03162 µM
  relative viability: 0.463
BGJ398 + Linsitinib; first compound 0.1 µM
  relative viability: 0.614
BGJ398 + Linsitinib; first compound 0.3162 µM
  relative viability: 0.541
BGJ398 + Linsitinib; first compound 1 µM
  relative viability: 0.546
[1]; first compound 0.02 µM
  relative viability: 0.384
[1]; first compound 0.06325 µM
  relative viability: 0.339
[1]; first compound 0.2 µM
  relative viability: 0.408
[1]; first compound 0.6325 µM
  relative viability: 0.394
[1]; first compound 2 µM
  relative viability: 0.354
BGJ398 + Bortezomib; first compound 0.01 µM
  relative viability: 0.373
BGJ398 + Bortezomib; first compound 0.03162 µM
  relative viability: 0.59
BGJ398 + Bortezomib; first compound 0.1 µM
  relative viability: 0.468
BGJ398 + Bortezomib; first compound 0.3162 µM
  relative viability: 0.472
BGJ398 + Bortezomib; first compound 1 µM
  relative viability: 0.455

## HCC-366
BGJ398 + Foretinib; first compound 0.01 µM
  relative viability: 0.924
BGJ398 + Foretinib; first compound 0.03162 µM
  relative viability: 0.883
BGJ398 + Foretinib; first compound 0.1 µM
  relative viability: 0.944
BGJ398 + Foretinib; first compound 0.3162 µM
  relative viability: 0.89
BGJ398 + Foretinib; first compound 1 µM
  relative viability: 1.08
BGJ398 + Linsitinib; first compound 0.01 µM
  relative viability: 0.743
BGJ398 + Linsitinib; first compound 0.03162 µM
  relative viability: 0.736
BGJ398 + Linsitinib; first compound 0.1 µM
  relative viability: 0.699
BGJ398 + Linsitinib; first compound 0.3162 µM
  relative viability: 0.801
BGJ398 + Linsitinib; first compound 1 µM
  relative viability: 0.784
[1]; first compound 0.02 µM
  relative viability: 0.114
[1]; first compound 0.2 µM
  relative viability: 0.135
[1]; first compound 0.6325 µM
  relative viability: 0.108
[1]; first compound 2 µM
  relative viability: 0.123
BGJ398 + Bortezomib; first compound 0.01 µM
  relative viability: 1.07
BGJ398 + Bortezomib; first compound 0.03162 µM
  relative viability: 1.1
BGJ398 + Bortezomib; first compound 0.1 µM
  relative viability: 1.15
BGJ398 + Bortezomib; first compound 0.3162 µM
  relative viability: 1.09
BGJ398 + Bortezomib; first compound 1 µM
  relative viability: 0.991

## HCC-827
BGJ398 + Foretinib; first compound 0.01 µM
  relative viability: 0.926
BGJ398 + Foretinib; first compound 0.1 µM
  relative viability: 1.02
BGJ398 + Foretinib; first compound 0.3162 µM
  relative viability: 1
BGJ398 + Foretinib; first compound 1 µM
  relative viability: 1.13
BGJ398 + Linsitinib; first compound 0.01 µM
  relative viability: 0.95
BGJ398 + Linsitinib; first compound 0.1 µM
  relative viability: 0.872
BGJ398 + Linsitinib; first compound 0.3162 µM
  relative viability: 0.942
BGJ398 + Linsitinib; first compound 1 µM
  relative viability: 0.989
[1]; first compound 0.02 µM
  relative viability: 0.403
[1]; first compound 0.06325 µM
  relative viability: 0.446
[1]; first compound 0.2 µM
  relative viability: 0.417
[1]; first compound 0.6325 µM
  relative viability: 0.38
[1]; first compound 2 µM
  relative viability: 0.472
BGJ398 + Bortezomib; first compound 0.01 µM
  relative viability: 0.942
BGJ398 + Bortezomib; first compound 0.03162 µM
  relative viability: 0.945
BGJ398 + Bortezomib; first compound 0.1 µM
  relative viability: 1.08
BGJ398 + Bortezomib; first compound 0.3162 µM
  relative viability: 0.972
BGJ398 + Bortezomib; first compound 1 µM
  relative viability: 0.973

## HOP-62
BGJ398 + Foretinib; first compound 0.01 µM
  relative viability: 0.939
BGJ398 + Foretinib; first compound 0.03162 µM
  relative viability: 1.13
BGJ398 + Foretinib; first compound 0.1 µM
  relative viability: 1.18
BGJ398 + Foretinib; first compound 0.3162 µM
  relative viability: 1.19
BGJ398 + Foretinib; first compound 1 µM
  relative viability: 1.07
BGJ398 + Linsitinib; first compound 0.01 µM
  relative viability: 1
BGJ398 + Linsitinib; first compound 0.03162 µM
  relative viability: 1.11
BGJ398 + Linsitinib; first compound 0.1 µM
  relative viability: 1.02
BGJ398 + Linsitinib; first compound 0.3162 µM
  relative viability: 0.876
BGJ398 + Linsitinib; first compound 1 µM
  relative viability: 0.946
[1]; first compound 0.02 µM
  relative viability: 0.352
[1]; first compound 0.06325 µM
  relative viability: 0.354
[1]; first compound 0.2 µM
  relative viability: 0.34
[1]; first compound 0.6325 µM
  relative viability: 0.328
[1]; first compound 2 µM
  relative viability: 0.363
BGJ398 + Bortezomib; first compound 0.01 µM
  relative viability: 0.726
BGJ398 + Bortezomib; first compound 0.03162 µM
  relative viability: 1.05
BGJ398 + Bortezomib; first compound 0.1 µM
  relative viability: 1.12
BGJ398 + Bortezomib; first compound 0.3162 µM
  relative viability: 0.585
BGJ398 + Bortezomib; first compound 1 µM
  relative viability: 0.788

## IA-LM
BGJ398 + Foretinib; first compound 0.01 µM
  relative viability: 1.2
BGJ398 + Foretinib; first compound 0.03162 µM
  relative viability: 1.08
BGJ398 + Foretinib; first compound 0.1 µM
  relative viability: 1.42
BGJ398 + Foretinib; first compound 0.3162 µM
  relative viability: 1.15
BGJ398 + Foretinib; first compound 1 µM
  relative viability: 1.14
BGJ398 + Linsitinib; first compound 0.01 µM
  relative viability: 0.532
BGJ398 + Linsitinib; first compound 0.03162 µM
  relative viability: 0.499
BGJ398 + Linsitinib; first compound 0.1 µM
  relative viability: 0.501
BGJ398 + Linsitinib; first compound 0.3162 µM
  relative viability: 0.496
BGJ398 + Linsitinib; first compound 1 µM
  relative viability: 0.481
BGJ398 + Bortezomib; first compound 0.01 µM
  relative viability: 0.741
BGJ398 + Bortezomib; first compound 0.03162 µM
  relative viability: 0.928
BGJ398 + Bortezomib; first compound 0.1 µM
  relative viability: 0.905
BGJ398 + Bortezomib; first compound 0.3162 µM
  relative viability: 0.822
BGJ398 + Bortezomib; first compound 1 µM
  relative viability: 0.788

## LK-2
BGJ398 + Foretinib; first compound 0.01 µM
  relative viability: 1.28
BGJ398 + Foretinib; first compound 0.03162 µM
  relative viability: 0.947
BGJ398 + Foretinib; first compound 0.1 µM
  relative viability: 0.897
BGJ398 + Foretinib; first compound 0.3162 µM
  relative viability: 0.618
BGJ398 + Foretinib; first compound 1 µM
  relative viability: 0.309
BGJ398 + Linsitinib; first compound 0.01 µM
  relative viability: 0.519
BGJ398 + Linsitinib; first compound 0.03162 µM
  relative viability: 0.438
BGJ398 + Linsitinib; first compound 0.1 µM
  relative viability: 0.242
BGJ398 + Linsitinib; first compound 0.3162 µM
  relative viability: 0.214
BGJ398 + Linsitinib; first compound 1 µM
  relative viability: 0.171
[1]; first compound 0.02 µM
  relative viability: 0.174
[1]; first compound 0.06325 µM
  relative viability: 0.189
[1]; first compound 0.2 µM
  relative viability: 0.159
[1]; first compound 0.6325 µM
  relative viability: 0.191
[1]; first compound 2 µM
  relative viability: 0.165

## NCI-H358
BGJ398 + Foretinib; first compound 0.01 µM
  relative viability: 0.61
BGJ398 + Foretinib; first compound 0.03162 µM
  relative viability: 0.725
BGJ398 + Foretinib; first compound 0.1 µM
  relative viability: 0.682
BGJ398 + Foretinib; first compound 0.3162 µM
  relative viability: 0.718
BGJ398 + Foretinib; first compound 1 µM
  relative viability: 0.951
BGJ398 + Linsitinib; first compound 0.01 µM
  relative viability: 0.631
BGJ398 + Linsitinib; first compound 0.03162 µM
  relative viability: 0.714
BGJ398 + Linsitinib; first compound 0.1 µM
  relative viability: 0.724
BGJ398 + Linsitinib; first compound 0.3162 µM
  relative viability: 0.707
BGJ398 + Linsitinib; first compound 1 µM
  relative viability: 0.848
[1]; first compound 0.02 µM
  relative viability: 0.1
[1]; first compound 0.06325 µM
  relative viability: 0.11
[1]; first compound 0.2 µM
  relative viability: 0.0984
[1]; first compound 0.6325 µM
  relative viability: 0.127
[1]; first compound 2 µM
  relative viability: 0.0886

## NCI-H522
[1]; first compound 0.02 µM
  relative viability: 0.64
[1]; first compound 0.06325 µM
  relative viability: 0.504
[1]; first compound 0.2 µM
  relative viability: 0.641
[1]; first compound 0.6325 µM
  relative viability: 0.542
[1]; first compound 2 µM
  relative viability: 0.549

## NCI-H1299
BGJ398 + Foretinib; first compound 0.01 µM
  relative viability: 1.09
BGJ398 + Foretinib; first compound 0.03162 µM
  relative viability: 1.06
BGJ398 + Foretinib; first compound 0.1 µM
  relative viability: 1.09
BGJ398 + Foretinib; first compound 0.3162 µM
  relative viability: 1.15
BGJ398 + Foretinib; first compound 1 µM
  relative viability: 1.03
BGJ398 + Linsitinib; first compound 0.01 µM
  relative viability: 0.926
BGJ398 + Linsitinib; first compound 0.03162 µM
  relative viability: 1.03
BGJ398 + Linsitinib; first compound 0.1 µM
  relative viability: 0.974
BGJ398 + Linsitinib; first compound 0.3162 µM
  relative viability: 0.928
BGJ398 + Linsitinib; first compound 1 µM
  relative viability: 0.727
BGJ398 + Bortezomib; first compound 0.01 µM
  relative viability: 0.982
BGJ398 + Bortezomib; first compound 0.03162 µM
  relative viability: 1.06
BGJ398 + Bortezomib; first compound 0.1 µM
  relative viability: 1.02
BGJ398 + Bortezomib; first compound 0.3162 µM
  relative viability: 1.01
BGJ398 + Bortezomib; first compound 1 µM
  relative viability: 1.01
